This note sets out measurements from ChEMBL document CHEMBL3608207, “Synthesis, characterization, evaluation and molecular dynamics studies of 5, 6-diphenyl-1,2,4-triazin-3(2H)-one derivatives bearing 5-substituted 1,3,4-oxadiazole as potential anti-inflammatory and analgesic agents” (Eur J Med Chem, 2015).

For series [1], the system named is Rattus norvegicus. Description: Toxicity in healthy albino rat assessed as induction of changes in autonomic or behavioural responses up to 500 mg/kg, po. Type of series: organism-based. Particulars: in vivo.
The subject of series [2] is Rattus norvegicus. The series can be described thus: Anti-inflammatory activity in rat model of acute inflammation assessed as inhibition of carrageenan-induced paw oedema dosed at equimolar oral dose relative to 10 mg/kg, po indomethacin dosed 1 hr before carrageenan injection and measured 5 hrs after carrageenan injection relative to 10 mg/kg, po indomethacin. Type of series: functional. In general terms: The carrageenan paw model is a standard test of acute inflammation.

In series [3] the test system is Rattus norvegicus. Description: Anti-inflammatory activity in rat model of acute inflammation assessed as inhibition of carrageenan-induced paw oedema dosed at equimolar oral dose relative to 10 mg/kg, po indomethacin dosed 1 hr before carrageenan injection and measured 5 hrs after carrageenan injection. Type of series: functional.
In series [4] the test system is Rattus norvegicus. Description: Anti-inflammatory activity in rat model of acute inflammation assessed as inhibition of carrageenan-induced paw oedema dosed at equimolar oral dose relative to 10 mg/kg, po indomethacin dosed 1 hr before carrageenan injection and measured 6 hrs after carrageenan injection. Type of series: functional.
Series [5] is described as follows: In-vitro anti-inflammatory activity assessed as inhibition of denaturation of bovine serum albumin at equimolar dose relative to 10 mg indomethacin. Type of series: functional.
Series [6] deals with Rattus norvegicus. Description: Toxicity in healthy albino rat assessed as induction of salivation up to 500 mg/kg, po. Type of series: organism-based. The note with it: in vivo.
The subject of series [7] is Rattus norvegicus. The series can be described thus: Toxicity in healthy albino rat assessed as induction of convulsion up to 500 mg/kg, po. The format is organism-based. The note with it: in vivo.
Series [8] relates to Rattus norvegicus. Description: Toxicity in healthy albino rat assessed as induction of mortality at 500 mg/kg, po measured after 14 days. The format is organism-based. The note with it: in vivo, 336 h.
In series [9] the test system is Rattus norvegicus. The series can be described thus: Toxicity in healthy albino rat assessed as induction of tremors up to 500 mg/kg, po. The format is organism-based. Particulars: in vivo.
The subject of series [10] is Rattus norvegicus. The series can be described thus: Anti-inflammatory activity in rat model of acute inflammation assessed as inhibition of carrageenan-induced paw oedema dosed at equimolar oral dose relative to 10 mg/kg, po indomethacin dosed 1 hr before carrageenan injection and measured 2 hrs after carrageenan injection. Type of series: functional.
A short description of series [11]: Retardation factor of the compound. The format is physicochemical.
Series [12] deals with Rattus norvegicus. The series can be described thus: Anti-inflammatory activity in rat model of acute inflammation assessed as inhibition of carrageenan-induced paw oedema dosed at equimolar oral dose relative to 10 mg/kg, po indomethacin dosed 1 hr before carrageenan injection and measured 3 hrs after carrageenan injection. The format is functional.
The nature of series [13]: Octanol/water partition coefficient, log P of the compound by shake flask method. Type of series: physicochemical.
The subject of series [14] is Rattus norvegicus. The series can be described thus: Toxicity in healthy albino rat assessed as induction of coma up to 500 mg/kg, po. Type of series: organism-based. The note with it: in vivo.
Series [15] concerns Rattus norvegicus. The series can be described thus: Anti-inflammatory activity in rat model of acute inflammation assessed as inhibition of carrageenan-induced paw oedema dosed at equimolar oral dose relative to 10 mg/kg, po indomethacin dosed 1 hr before carrageenan injection and measured 4 hrs after carrageenan injection. The format is functional.
The subject of series [16] is Rattus norvegicus. Description: Anti-inflammatory activity in rat model of acute inflammation assessed as inhibition of carrageenan-induced paw oedema dosed at equimolar oral dose relative to 10 mg/kg, po indomethacin dosed 1 hr before carrageenan injection and measured 1 hr after carrageenan injection. The format is functional.
In series [17] the test system is Rattus norvegicus. Description: Toxicity in healthy albino rat assessed as induction of sleep up to 500 mg/kg, po. The format is organism-based. The note with it: in vivo.
Series [18] deals with Rattus norvegicus. Description: Toxicity in healthy albino rat assessed as induction of diarrhoea up to 500 mg/kg, po. Type of series: organism-based. Particulars: in vivo.
Series [19] concerns Rattus norvegicus. Description: Toxicity in healthy albino rat assessed as induction of lethargy up to 500 mg/kg, po. Type of series: organism-based. Particulars: in vivo.
Series [20] has as its system Mus musculus. The series can be described thus: Analgesic activity in Swiss albino mouse assessed as reduction in formalin-induced paw licking by measuring time spent on licking during phase-2 at 10 mg/kg, po dosed 1 hr before formalin challenge and measured 30 mins after formalin injection. Type of series: functional.
The test system of series [21] is Mus musculus. Description: Analgesic activity in Swiss albino mouse assessed as reduction in formalin-induced paw licking by measuring time spent on licking during phase-1 at 10 mg/kg, po dosed 1 hr before formalin challenge and measured 30 mins after formalin injection. Type of series: functional.
For series [22], the system named is Rattus norvegicus. Description: Anti-inflammatory activity in rat assessed as inhibition of arachidonic acid-induced paw edema at 10 mg/kg, po dosed 30 mins before arachidonic acid injection and measured 1 hr after arachidonic acid injection. The format is functional.

With `O=c1nc(-c2ccccc2)c(-c2ccccc2)nn1Cc1nnc(Oc2ccc(Cl)cc2Cl)o1`, the Activity entry with Rattus norvegicus [1], with Rattus norvegicus [6], in the series with Rattus norvegicus [7], in the series on Rattus norvegicus [8], in the series with Rattus norvegicus [9] and in the series with Rattus norvegicus [14] was “Non-toxic” throughout. For the same compound, the Activity result in the series on Rattus norvegicus [17], in the series on Rattus norvegicus [18] and with Rattus norvegicus [19] was “Non-toxic” in each case. Moreover, the “inhibition (INH)” value in the series with Rattus norvegicus [2] is recorded as 75.25%; in the series on Rattus norvegicus [3], 47.14%; with Rattus norvegicus [4], 44.89%; in the series on Rattus norvegicus [10] it was 34.87%; with Rattus norvegicus [12], 42.02%; in the series on Rattus norvegicus [15], 45.24%. For the same compound, the “inhibition (INH)” value in the series on Rattus norvegicus [16] amounted to 15.59%. Further, in series [5], the inhibition was found to be 72.7%. This compound also came in with a Rf in series [11] of 0.47. The same compound registered a logP in series [13] of 4.4.

Regarding `NNC(=O)Cn1nc(-c2ccccc2)c(-c2ccccc2)nc1=O`, the inhibition in series [5] turned out to be 38.3%.

Turning to `O=c1nc(-c2ccccc2)c(-c2ccccc2)nn1Cc1nnc(-c2ccncc2)o1`, the inhibition in [5] was determined as 47.9%. Besides, in [11], the Rf amounted to 0.43. In [13], this compound showed a logP of 3.67.

With `CC(C)=CCN1CC[C@]2(C)c3cc(O)ccc3C[C@H]1[C@H]2C` [(+)-PENTAZOCINE], the inhibition in vivo at 10 mg/kg in the series with Mus musculus [20] turned out to be 90.2%; in the series with Mus musculus [21], 88.9%.

Take `O=c1nc(-c2ccccc2)c(-c2ccccc2)nn1Cc1nnc(-c2ccccc2)o1`: the inhibition in series [5] stood at 50.3%. In addition, the Rf in series [11] worked out at 0.4. Further, the logP in series [13] amounted to 3.54.

On to `O=c1nc(-c2ccccc2)c(-c2ccccc2)nn1Cc1nnc(-c2cccc(Cl)c2)o1`, for which, in [5], the inhibition came to 64.4%. In [11], this compound returned a Rf of 0.45. For the same compound, the log partition coefficient (logP) in [13] was 3.82.

In the case of `COc1cccc(-c2nnc(Cn3nc(-c4ccccc4)c(-c4ccccc4)nc3=O)o2)c1`, in [5], the inhibition is 62.7%. In series [11], this compound showed a Rf of 0.38. The compound also yielded a log partition coefficient (logP) in series [13] of 3.47.

In the case of `O=c1nc(-c2ccccc2)c(-c2ccccc2)nn1Cc1nnc(-c2ccc(Cl)cc2Cl)o1`, the Activity result in the series on Rattus norvegicus [1], in the series on Rattus norvegicus [6], with Rattus norvegicus [7], in the series with Rattus norvegicus [8], with Rattus norvegicus [9] and with Rattus norvegicus [14] was “Non-toxic” in each case. For the same compound, the Activity entry in the series with Rattus norvegicus [17], in the series with Rattus norvegicus [18] and in the series with Rattus norvegicus [19] was “Non-toxic” throughout. In addition, the “inhibition (INH)” value in the series with Rattus norvegicus [2] is reported as 61.16%; in the series with Rattus norvegicus [3] it was 38.31%; in the series on Rattus norvegicus [4], 35.42%; with Rattus norvegicus [10] it was 28.44%; with Rattus norvegicus [12], 31.23%; in the series on Rattus norvegicus [15], 34.8%. Further, the “inhibition (INH)” value in the series with Rattus norvegicus [16] is listed as 12.01%. The inhibition in series [5] is 67.7%. Also, the Rf in series [11] is on record as 0.51. Besides, the log partition coefficient (logP) in [13] amounted to 4.45.

For `N#Cc1cccc(-c2nnc(Cn3nc(-c4ccccc4)c(-c4ccccc4)nc3=O)o2)c1`, in series [5], the inhibition is 62.3%. Further, the Rf in series [11] turned out to be 0.45. The same compound showed a lipophilicity (logP) in series [13] of 3.74.

As for `Cc1ccc(-c2nnc(Cn3nc(-c4ccccc4)c(-c4ccccc4)nc3=O)o2)cc1`, the inhibition in [5] is 50.3%. This compound came in with a Rf in [11] of 0.34. For the same compound, the logP in series [13] came to 3.73.

In the case of `Oc1nnc(-c2ccccc2)c(-c2ccccc2)n1`, the inhibition in series [5] stood at 30.7%.

As to `CCOC(=O)Cn1nc(-c2ccccc2)c(-c2ccccc2)nc1=O`, the inhibition in series [5] was determined as 35.7%.

As to `CC(c1cc2ccccc2s1)N(O)C(N)=O` (centres undefined) [ZILEUTON], the inhibition in vivo at 10 mg/kg in the series on Rattus norvegicus [22] worked out at 67.4%.

For `O=c1nc(-c2ccccc2)c(-c2ccccc2)nn1Cc1nnc(-c2ccccc2[N+](=O)[O-])o1`, the Activity result with Rattus norvegicus [1], with Rattus norvegicus [6], in the series on Rattus norvegicus [7], with Rattus norvegicus [8], in the series with Rattus norvegicus [9] and with Rattus norvegicus [14] was “Non-toxic” in each case. In addition, the Activity result in the series on Rattus norvegicus [17], with Rattus norvegicus [18] and in the series with Rattus norvegicus [19] was “Non-toxic” throughout. Further, the “inhibition (INH)” value is listed as 65.92% in the series with Rattus norvegicus [2]; 41.29% with Rattus norvegicus [3]; 39% in the series with Rattus norvegicus [4]; 30.7% in the series with Rattus norvegicus [10]; 36.39% in the series on Rattus norvegicus [12]; 38.75% in the series with Rattus norvegicus [15]. Moreover, the “inhibition (INH)” value in the series with Rattus norvegicus [16] turned out to be 12.12%. Further, the inhibition in [5] came to 70.1%. For the same compound, the Rf in series [11] is reported as 0.35. The same compound registered a logP in series [13] of 3.64.

`Cc1ccccc1-c1nnc(Cn2nc(-c3ccccc3)c(-c3ccccc3)nc2=O)o1`: in series [5], the inhibition came to 53.7%. The compound further registered a Rf in series [11] of 0.36. In series [13], this compound showed a logP of 3.81.

The term inhibition denotes the share of the control response that was lost under treatment. A word on the logP: it is the decadic logarithm of the partition coefficient of the neutral form, usually between octanol and water. Higher therefore signals a more lipophilic compound. As usually defined, the inhibition in vivo is the drop in the measured response relative to a control, in per cent.
